US20160237400A1, “ISOLATION OF NON-EMBRYONIC STEM CELLS AND USES THEREOF” (The Jackson Laboratory, priority 2013, published 2016)
Entries after “also recorded” stand apart in the source; their conditions may differ.

Experiments:
[1] = tested on: paclitaxel resistant (G3) IC#1 CSC library; assay: plate (colony formation) assay, paclitaxel-resistant CSC library; assay type: cell-based, human
Experimental: (§1) Survivors were re-plated en masse, and cycled through two additional rounds of 100 nM paclitaxel for 3 hours with recovery in between for 10 days, after which visible colonies were selected and individually expanded as pedigrees (FIG. 28B). To determine relationships between these ad hoc, paclitaxel-resistant pedigrees from the library and the 92 randomly sampled pedigrees from the treatment-naïve IC#1 library assessed for CSC heterogeneity, their CNV profiles were mapped onto the heterogeneity map established for IC#1.
The GSEA data in the table above highlighted the PGR pathway. Analysis of gene expression in the IC#1 CSC library treated with successive rounds of paclitaxel indeed confirmed a progressive increase in PGR expression (FIG. 31). […] The fate of 25,000 colony forming units from the IC#1 CSC library and the paclitaxel resistant library (G3) following exposure to combinations of paclitaxel, RU486, and cisplatin were directly compared. RU486 is a PGR antagonist that has previously been tested and failed as a single agent in clinical trials for recurrent ovarian cancer.
Next, the long-term impact of these drug combinations on the paclitaxel-resistant G3 pool over successive rounds of exposure was investigated.
(§2) High-grade ovarian cancer was surgically resected, and tumor tissue was collected into cold F12 media (Gibco, USA) with 5% fetal bovine serum (HyClone, USA) and then minced by sterile scalpel into 0.2-0.5 mm^3 sizes to a viscous and homogeneous appearance. The minced tissue was digested in 2 mg/mL collagenase type IV (Gibco, USA) at 37° C. for 30-60 min with agitation. Dissociated cells were passed through a 70 μm Nylon mesh (Falcon, USA) to remove aggregates and then were washed four times in cold F12 media, and then seeded onto a feeder layer of lethally irradiated 3T3-J2 cells in c-FAD media modified to SCM-68 media by the addition of 125 ng/mL R-spondin1 (R&D systems, USA), 1 μM Jagged-1 (AnaSpec Inc., USA), 100 ng/ml human Noggin (Peprotech, USA), 2.5 μM Rock-inhibitor (Calbiochem, USA), 2 μM SB431542 (Cayman chemical, USA), and 10 mM nicotinamide (Sigma-Aldrich, USA).
Cells were cultured at 37° C. in a 7.5% CO2 incubator. The culture media was replaced every two days. Colonies were digested by 0.25% trypsin-EDTA solution (Gibco, USA) for 5-8 min and passaged every 7 to 10 days. Colonies were trypsinized by TrypLE Express solution (Gibco, USA) for 8-15 min at 37° C. and cell suspensions were passed through 30 μm filters (Miltenyi Biotec, Germany). Approximately 20,000 epithelial cells were seeded to each well of 6-well plate. Cloning cylinder (Pyrex, USA) and high vacuum grease (Dow Corning, USA) were used to select single colonies for pedigrees. Gene expression analyses were performed on cells derived from passage 2-8 (P2-P8) cultures.

[2] = tested on: CSC pedigrees sampled from Groups B, C, D, E, F and G of the IC#1 library; assay: paclitaxel challenge of sampled CSC pedigrees of Groups B to G; assay type: cell-based, human
[3] = tested on: CSCs from the IC#2 library; assay: paclitaxel challenge of IC#2 CSCs; assay type: cell-based, human; settings: parameters identical to IC#1 (100 nM, 3 hours, three rounds); 37 individual CSCs
[4] = tested on: CD166hi CSC clones from the IC#1 library; assay: drug challenge of CD166hi sorted CSC clones; assay type: cell-based, human; settings: clones flow sorted for CD166 from the IC#1 library, individually tested
[5] = tested on: CSCs from the IC#1 library (G0), high-grade ovarian cancer; assay: plate (colony formation) assay, rhodamine B stain, treatment-naive CSC library; assay type: cell-based, human
Experimental: To probe for paclitaxel resistance in the IC#1 library of CSCs, a paclitaxel dose-response curved were established by challenging 10,000 CSCs with a spectrum of paclitaxel concentrations. […] The plates were then stained with rhodamine B. Rhodamine B-stained 100 nM paclitaxel treatment plate yielded less than 0.1% of the control colonies.
as §1, §2
Cells were cultured at 37° C. in a 7.5% CO2 incubator. The culture media was replaced every two days. Colonies were digested by 0.25% trypsin-EDTA solution (Gibco, USA) for 5-8 min and passaged every 7 to 10 days. […]

[6] = tested on: N11 CSC pedigree (IC#1 library); assay: paclitaxel challenge of sampled CSC pedigree N11; assay type: cell-based, human
[7] = tested on: stem cell colonies (DASCp63/Krt5) from Krt6-DTR and WT mouse lung; assay type: cell-based
[8] = tested on: Krt5+ / Krt6+ cells in lung of Krt6-DTR mice; settings: in vivo

## CC(C)C[C@H](NC(=O)[C@H](Cc1ccccc1)NC(=O)c1cnccn1)B(O)O [bortezomib]
[1]
  effect towards resistant CSCs of IC#1 when used together with paclitaxel: synthetic lethality

## CC(C)C[C@H](NC(=O)[C@H](CCc1ccccc1)NC(=O)CN1CCOCC1)C(=O)N[C@@H](Cc1ccccc1)C(=O)N[C@@H](CC(C)C)C(=O)[C@@]1(C)CO1 [carfilzomib]
[1]
  effect towards resistant CSCs of IC#1 when used together with paclitaxel: synthetic lethality

## CC(=O)O[C@H]1C(=O)[C@@]2(C)[C@H]([C@H](OC(=O)c3ccccc3)[C@]3(O)C[C@H](OC(=O)[C@H](O)[C@@H](NC(=O)c4ccccc4)c4ccccc4)C(C)=C1C3(C)C)[C@]1(OC(C)=O)CO[C@@H]1C[C@@H]2O [paclitaxel]
[2]; CSCs within group B, third round of paclitaxel
  resistance at the third round: less than 35%
[2]; single dose of 100 nM paclitaxel, representative CSCs from the other six clusters
  resistance to initial challenge: little or no resistance
[3]
  survival of triple paclitaxel challenge: none of the 37 individual CSCs from the IC#2 library survived
[1]; 25,000 colony-forming units, G4 challenge
  survival (colonies) of the paclitaxel-resistant G3 pool: 15%
[1]; Ru486 10 μM, paclitaxel 100 nM, cisplatin 20 μM
  resistance over four additional successive rounds of exposure, measured by colony formation: progressive resistance
[4]
  CD166hi clones tested with intrinsic resistance: 21%
[5]; 100 nM paclitaxel for 3 hours, about 10,000 colony-forming units, rhodamine B stain
  colonies relative to control colonies: less than 0.1%
[5]; 25,000 colony-forming units, single agent
  activity against the treatment naive IC#1 G0 library: strong activity
[5]; single dose of 100 nM paclitaxel, IC#1 library
  resistance to initial challenge: little or no resistance
[6]; initial challenge, single dose of 100 nM paclitaxel
  cells survived initial challenge: 17.5%
[6]; third round of paclitaxel
  resistance after two additional challenges: ~100%

## diphtheria toxin
[7]
  fate of Krt6-DTR stem cell colonies on diphtheria toxin: die within four days; also recorded: dies after 4 days
  fate of control (WT) colonies on diphtheria toxin: continued to proliferate and expand in size; also recorded: looks normal
  sensitivity of Krt6 negative endothelial cells from Krt6-DTR mice: insensitive
[8]
  reduction of clonogenic cell number versus WT mouse with DT (clonogenic assay): 70-80%
[8]; mouse
  loss of Krt5+ cells compared to wild type controls: 90%
  loss of Krt6+ cells compared to wild type controls: greater than 99%
[8]; mouse, ip
  reduction of Krt5+ cell number versus WT (IF staining): 70%
  reduction of Krt6+ cell number versus WT (IF staining): ~90%
